Laboratory results published in patent US20250242064A1, “CXCR4-TARGETING COMPOUNDS, AND METHODS OF MAKING AND USING THE SAME” (PROVINCIAL HEALTH SERVICES AUTHORITY, priority 2022, published 2025).
pIC50: −log10 of the molar value. Where two headings read alike, the source gives them in different places. Where a SMILES comes first, the peptide text is derived from it. Bridges are numbered along the chain shown (N, C = ends). Side-chain parts run from the residue outwards. [ ]: non-standard residue; d: D form. The star is where a group is joined. X1 = O=C(O)CN1CCN(CC(=O)O)CCN(CC(=O)N[C@@H](CS(=O)(=O)O)C(=O)N[C@@H](CCCCNC(=O)CCCc2ccc(I)cc2)C(=O)*)CCN(CC(=O)O)CC1; X6 = COc1ccc(CCCC(=O)NCCCC[C@H](NC(=O)[C@H](CS(=O)(=O)O)NC(=O)CN2CCN(CC(=O)O)CCN(CC(=O)O)CCN(CC(=O)O)CC2)C(=O)*)cc1; X7 = COc1ccc(CCCC(=O)NCCCC[C@H](NC(=O)CN2CCN(CC(=O)O)CCN(CC(=O)O)CCN(CC(=O)O)CC2)C(=O)*)cc1; DOTA = O=C(O)CN1CCN(CC(=O)O)CCN(CC(=O)*)CCN(CC(=O)O)CC1; Butanoyl(4-(4-MeO-phenyl)) = COc1ccc(CCCC(=O)*)cc1; 2Nal = N[C@@H](Cc1ccc2ccccc2c1)C(=O)O; Lys(iPr) = CC(C)NCCCC[C@H](N)C(=O)O; Cya = N[C@@H](CS(=O)(=O)O)C(=O)O

Experiments:
[1] = molecular target: T1, CXCR4 (Homo sapiens, UniProt P61073); assay: Competitive binding assay, [125I]SDF-1α displacement on CHO:CXCR4 cells; set-up: expressed in transfected cells; host or cells: CHO:CXCR4 cells; settings: [125I]SDF-1α 0.01 nM, 1 h at 27° C., read-out: IC50 (nM), binding affinity for hCXCR4
Description: CHO:CXCR4 cells were seeded at a density of 1×10^5 cells/well in 24-well poly-D-lysine coated plates (Corning BioCoat) and incubated with [^125I]SDF-1α (0.01 nM, PerkinElmer) and competing nonradioactive ligands ([…]). The cells, radioligand, and competing peptides were incubated for 1 h at 27° C. with moderate shaking. Following the incubation period, the supernatant was aspirated, followed by three washes with 1 mL of ice-cold PBS. Cells were harvested with 200 μL of trypsin and counted on a y counter. Data were plotted in GraphPad Prism 7 to determine IC50 values (GraphPad Software, Inc., La Jolla, CA). The values are reported as mean±standard deviation.
Target sequence in this assay (P61073 whole entry): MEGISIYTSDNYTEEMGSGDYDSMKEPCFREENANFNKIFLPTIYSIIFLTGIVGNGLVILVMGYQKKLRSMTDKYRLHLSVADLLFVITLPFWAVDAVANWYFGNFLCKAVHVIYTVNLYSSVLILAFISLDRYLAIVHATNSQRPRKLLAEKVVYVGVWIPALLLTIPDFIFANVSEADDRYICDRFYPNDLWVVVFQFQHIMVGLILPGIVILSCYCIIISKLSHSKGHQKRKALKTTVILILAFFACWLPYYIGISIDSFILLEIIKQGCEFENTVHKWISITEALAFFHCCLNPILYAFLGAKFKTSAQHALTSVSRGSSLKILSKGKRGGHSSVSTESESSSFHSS

[2] = system: Z138 tumor-bearing mice; assay: in vivo; settings: male, NOD.Cg-Rag1tm1Mom Il2rgtm1Wjl/SzJ (NRG), mouse, iv
Summary of the method: (§1)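 Male NRG mice bearing subcutaneous Z138 mantle cell lymphoma xenografts (5×10^6 cells, grown to 200-300 mm^3) injected intravenously under isoflurane with 68Ga-labelled tracers. Harvested tissues weighed and gamma-counted; uptake expressed as % ID/g.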

[3] = system: small cell lung cancer patients; settings: reported; cited from earlier work
[4] = molecular target: T1, CXCR4; settings: reported; read-out: IC50, block of SDF-1a binding to CXCR4; cited from earlier work
Target sequence in this assay (P61073 whole entry, species assumed): as the sequence (P61073 whole entry) above

[5] = system: non-Hodgkin lymphoma, renal cell carcinoma, lung cancer, colorectal cancer, and breast cancer xenograft models; settings: reported; cited from earlier work
[6] = in vivo; set-up: species or system mice; settings: male, NOD.Cg-Rag1tm1Mom Il2rgtm1Wjl/SzJ (NRG), mouse, iv, total radioactivity
Summary of the method: as §1

COc1ccc(CCCC(=O)NCCCC[C@H](NC(=O)CN2CCN(CC(=O)O)CCN(CC(=O)O)CCN(CC(=O)O)CC2)C(=O)N[C@@H](CS(=O)(=O)O)C(=O)NCCCC[C@@H]2NC(=O)CC[C@H](C(=O)N[C@@H](CCCCNC(C)C)C(N)=O)NC(=O)[C@@H](C)NC(=O)[C@H](Cc3ccc4ccccc4c3)NC(=O)[C@@H](CCCNC(=N)N)NC(=O)[C@H](CCCCNC(C)C)NC(=O)[C@H](Cc3ccc(O)cc3)NC2=O)cc1 [BL34L6] (K([Cya-X7])Y[Lys(iPr)][dR][2Nal][dA][dE][Lys(iPr)]-NH2; lactam N-7)
IC50 [1]: 10 to 50 nM

COc1ccc(CCCC(=O)NCCCC[C@H](NC(=O)[C@H](CS(=O)(=O)O)NC(=O)CN2CCN(CC(=O)O)CCN(CC(=O)O)CCN(CC(=O)O)CC2)C(=O)NCCCC[C@@H]2NC(=O)CC[C@H](C(=O)N[C@@H](CCCCNC(C)C)C(N)=O)NC(=O)[C@@H](C)NC(=O)[C@H](Cc3ccc4ccccc4c3)NC(=O)[C@@H](CCCNC(=N)N)NC(=O)[C@H](CCCCNC(C)C)NC(=O)[C@H](Cc3ccc(O)cc3)NC2=O)cc1 [BL34L7] (K(X6)Y[Lys(iPr)][dR][2Nal][dA][dE][Lys(iPr)]-NH2; lactam N-7)
IC50 [1]: 10 to 50 nM

CC(C)NCCCC[C@H](NC(=O)[C@H]1CCC(=O)N[C@@H](CCCCNC(=O)[C@H](CCCCNC(=O)CCCc2ccc(I)cc2)NC(=O)[C@H](CS(=O)(=O)O)NC(=O)CN2CCN(CC(=O)O)CCN(CC(=O)O)CCN(CC(=O)O)CC2)C(=O)N[C@@H](Cc2ccc(O)cc2)C(=O)N[C@@H](CCCCNC(C)C)C(=O)N[C@H](CCCNC(=N)N)C(=O)N[C@@H](Cc2ccc3ccccc3c2)C(=O)N[C@H](C)C(=O)N1)C(N)=O [[^177Lu]Lu-BL34L11] [metal not drawn] (K(X1)Y[Lys(iPr)][dR][2Nal][dA][dE][Lys(iPr)]-NH2; lactam N-7)
Biodistribution: Adrenals ([2]; 1 h): 3.76 % ID/g | Biodistribution: Blood ([2]; 1 h): 18.59 % ID/g | Biodistribution: Bone ([2]; 1 h): 1.16 % ID/g | Biodistribution: Brain ([2]; 1 h): 0.29 % ID/g | Biodistribution: Heart ([2]; 1 h): 4.23 % ID/g | Biodistribution: Kidneys ([2]; 1 h): 5.23 % ID/g | Biodistribution: Liver ([2]; 1 h): 3.14 % ID/g | Biodistribution: Lungs ([2]; 1 h): 14.83 % ID/g | Biodistribution: Muscle ([2]; 1 h): 1.20 % ID/g | Biodistribution: Pancreas ([2]; 1 h): 1.80 % ID/g | Biodistribution: Small Intestine ([2]; 1 h): 1.56 % ID/g | Biodistribution: Spleen ([2]; 1 h): 1.56 % ID/g | Biodistribution: Stomach ([2]; 1 h): 0.61 % ID/g | Biodistribution: Testes ([2]; 1 h): 2.49 % ID/g | Biodistribution: Z138 Tumor ([2]; 1 h): 4.09 % ID/g | Ratio Tumor-to-Blood ([2]; 1 h): 0.22 | Ratio Tumor-to-Bone ([2]; 1 h): 2.39 | Ratio Tumor-to-Kidney ([2]; 1 h): 0.78 | Ratio Tumor-to-Muscle ([2]; 1 h): 3.35 | Ratio Tumor-to-Pancreas ([2]; 1 h): 2.31 | Biodistribution: Adrenals ([2]; 3 h): 3.12 % ID/g | Biodistribution: Blood ([2]; 3 h): 14.23 % ID/g | Biodistribution: Bone ([2]; 3 h): 0.97 % ID/g | Biodistribution: Brain ([2]; 3 h): 0.22 % ID/g | Biodistribution: Heart ([2]; 3 h): 3.34 % ID/g | Biodistribution: Kidneys ([2]; 3 h): 3.92 % ID/g | Biodistribution: Liver ([2]; 3 h): 3.18 % ID/g | Biodistribution: Lungs ([2]; 3 h): 7.95 % ID/g | Biodistribution: Muscle ([2]; 3 h): 1.25 % ID/g | Biodistribution: Pancreas ([2]; 3 h): 1.54 % ID/g | Biodistribution: Small Intestine ([2]; 3 h): 1.35 % ID/g | Biodistribution: Spleen ([2]; 3 h): 2.03 % ID/g | Biodistribution: Stomach ([2]; 3 h): 0.83 % ID/g | Biodistribution: Testes ([2]; 3 h): 3.53 % ID/g | Biodistribution: Z138 Tumor ([2]; 3 h): 9.81 % ID/g | Ratio Tumor-to-Blood ([2]; 3 h): 0.69 | Ratio Tumor-to-Bone ([2]; 3 h): 8.14 | Ratio Tumor-to-Kidney ([2]; 3 h): 2.52 | Ratio Tumor-to-Muscle ([2]; 3 h): 7.89 | Ratio Tumor-to-Pancreas ([2]; 3 h): 6.59

cyclo[Phe-Tyr-Lys(iPr)-D-Arg-2-Nal-Gly-D-Glu]-Lys(iPr)-NH2 [LY2510924]
treatment efficacy with carboplatin/etoposide chemotherapy [3]: failed to improve treatment efficacy | pIC50 [4]: 10.10 | inhibition of growth of xenograft models [5]: able to inhibit growth

COc1ccc(CCCC(=O)NCCCC[C@H](NC(=O)[C@H](CCCCNC(C)C)NC(=O)[C@H]2CCC(=O)N[C@@H](CCCCNC(=O)[C@H](CS(=O)(=O)O)NC(=O)CN3CCN(CC(=O)O)CCN(CC(=O)O)CCN(CC(=O)O)CC3)C(=O)N[C@@H](Cc3ccc(O)cc3)C(=O)N[C@@H](CCCCNC(C)C)C(=O)N[C@H](CCCNC(=N)N)C(=O)N[C@@H](Cc3ccc4ccccc4c3)C(=O)N[C@H](C)C(=O)N2)C(N)=O)cc1 [BL34L8] (K([Cya-DOTA])Y[Lys(iPr)][dR][2Nal][dA][dE][Lys(iPr)]K(Butanoyl(4-(4-MeO-phenyl)))-NH2; lactam N-7)
IC50 [1]: > 100 nM

CC(C)NCCCC[C@H](NC(=O)[C@@H]1CCSc2c3cccc([N+](=O)[O-])c3cn2[C@@H](CCCCNC(=O)[C@H](CS(=O)(=O)O)NC(=O)CN2CCN(CC(=O)O)CCN(CC(=O)O)CCN(CC(=O)O)CC2)C(=O)CC(Cc2ccc(O)cc2)C(=O)N[C@@H](CCCCNC(C)C)C(=O)N[C@H](CCCNC(=N)N)C(=O)N[C@@H](Cc2ccc3ccccc3c2)C(=O)N[C@H](C)C(=O)N1)C(N)=O (stereo partly drawn) [[^68Ga]Ga-3NOPA-BL34L2, metal not drawn]
tissue uptake at 1 h ([6]; Biodistribution: Adrenals): 0.7 %ID/g | tissue uptake at 1 h ([6]; Biodistribution: Blood): 0.77 %ID/g | tissue uptake at 1 h ([6]; Biodistribution: Bone): 0.56 %ID/g | tissue uptake at 1 h ([6]; Biodistribution: Brain): 0.03 %ID/g | tissue uptake at 1 h ([6]; Biodistribution: Heart): 0.45 %ID/g | tissue uptake at 1 h ([6]; Biodistribution: Kidneys): 5.66 %ID/g | tissue uptake at 1 h ([6]; Biodistribution: Liver): 12.5 %ID/g | tissue uptake at 1 h ([6]; Biodistribution: Lungs): 4.14 %ID/g | tissue uptake at 1 h ([6]; Biodistribution: Muscle): 0.19 %ID/g | tissue uptake at 1 h ([6]; Biodistribution: Pancreas): 0.21 %ID/g | tissue uptake at 1 h ([6]; Biodistribution: Small Intestine): 0.58 %ID/g | tissue uptake at 1 h ([6]; Biodistribution: Spleen): 2.44 %ID/g | tissue uptake at 1 h ([6]; Biodistribution: Stomach): 0.12 %ID/g | tissue uptake at 1 h ([6]; Biodistribution: Testes): 0.33 %ID/g | tissue uptake at 1 h ([6]; Biodistribution: Z138 Tumor): 7.97 %ID/g | tissue to tissue ratio at 1 h ([6]; Ratio Tumor-to-Blood): 10.4 | tissue to tissue ratio at 1 h ([6]; Ratio Tumor-to-Bone): 15.5 | tissue to tissue ratio at 1 h ([6]; Ratio Tumor-to-Kidney): 1.41 | tissue to tissue ratio at 1 h ([6]; Ratio Tumor-to-Muscle): 41.8 | tissue to tissue ratio at 1 h ([6]; Ratio Tumor-to-Pancreas): 38.1
